The record followed here is BindingDB's records for doi:10.1021/jm301144g (Human Biomolecular Research Institute, 2012).

pIC50: −log10 of the molar value.

This test has as its target TGF-beta receptor type-2 (Homo sapiens, UniProt P37173). Kind of test: Inhibition of TGBR2 signaling in human HEK293T cells assessed as inhibition of SMAD activation after 2 to 22 hrs by dual Luciferase Assay.

TGF-beta receptor type-2, sequence (P37173 whole entry): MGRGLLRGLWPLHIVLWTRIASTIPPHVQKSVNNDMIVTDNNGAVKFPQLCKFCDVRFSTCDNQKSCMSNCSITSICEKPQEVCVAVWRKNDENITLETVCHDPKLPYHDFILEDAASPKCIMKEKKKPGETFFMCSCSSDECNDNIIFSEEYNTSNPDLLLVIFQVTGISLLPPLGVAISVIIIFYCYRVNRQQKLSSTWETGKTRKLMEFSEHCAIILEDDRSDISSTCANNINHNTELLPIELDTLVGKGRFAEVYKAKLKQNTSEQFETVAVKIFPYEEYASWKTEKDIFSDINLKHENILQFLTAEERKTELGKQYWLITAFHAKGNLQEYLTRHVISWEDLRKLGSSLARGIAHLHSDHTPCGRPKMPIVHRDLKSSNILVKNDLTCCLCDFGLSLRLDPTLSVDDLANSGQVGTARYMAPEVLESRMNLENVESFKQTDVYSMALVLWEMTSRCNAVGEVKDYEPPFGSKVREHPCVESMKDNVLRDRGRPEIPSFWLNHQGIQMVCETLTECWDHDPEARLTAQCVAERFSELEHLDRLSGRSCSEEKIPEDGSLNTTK

Turning to `CCOC(=O)C1=C(C)N=C2CC(C)(C)CC(=O)C2C1c1ccc(-c2ccccc2)cc1` (stereo unspecified), the pIC50 was 6.34.
